Activity calls are given as the source filed them.
Key:
[1] = test system: BJ; assay: BJ-TERT fibroblast viability loss – cell-based, RAS-independent, luminescence, dose response (AID 1933); type: functional; details: Homo sapiens
[2] = test system: BJ; assay: cells; type: functional, cell-based; details: Homo sapiens
[3] = biological target: T1, Serine/threonine-protein phosphatase (Candida dubliniensis (strain CD36 / CBS 7987 / NCPF 3949 / NRRLY-17841) (Yeast), UniProt B9W6M3); assay: blockers of CaCl2-induced CDRE-lacZ signaling – S. cerevisiae, luminescence, secondary, dose response (AID 2388); type: functional, cell-based;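 note: yeast reporter cells carrying a calcineurin-responsive lacZ construct stimulated with calcium chloride; luminescent beta-galactosidase reporter signal in whole cells rather than isolated phosphatase activity; potency for inhibition where a drop in reporter signal means calcineurin blockade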
T1 sequence (B9W6M3 whole entry): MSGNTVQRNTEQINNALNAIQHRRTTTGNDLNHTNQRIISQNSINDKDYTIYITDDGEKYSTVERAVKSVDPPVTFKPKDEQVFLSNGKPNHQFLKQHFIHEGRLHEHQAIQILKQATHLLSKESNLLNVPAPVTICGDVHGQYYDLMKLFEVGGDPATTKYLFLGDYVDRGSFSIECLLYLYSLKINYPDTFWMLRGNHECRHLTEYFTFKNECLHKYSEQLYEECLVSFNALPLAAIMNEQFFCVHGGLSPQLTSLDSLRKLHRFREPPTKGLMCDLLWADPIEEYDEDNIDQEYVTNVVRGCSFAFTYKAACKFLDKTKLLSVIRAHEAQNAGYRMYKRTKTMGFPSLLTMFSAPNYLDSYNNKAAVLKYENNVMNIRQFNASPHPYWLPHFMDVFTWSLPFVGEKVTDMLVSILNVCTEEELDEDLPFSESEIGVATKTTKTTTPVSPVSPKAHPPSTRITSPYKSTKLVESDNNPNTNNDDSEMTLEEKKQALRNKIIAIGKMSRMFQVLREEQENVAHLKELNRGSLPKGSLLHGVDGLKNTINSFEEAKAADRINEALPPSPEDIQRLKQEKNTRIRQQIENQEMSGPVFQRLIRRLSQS

[4] = DRD fibroblast viability loss – cell-based, non-viral oncogenic, luminescence, dose response (AID 1934); type: functional; details: Homo sapiens
[5] = Counterscreen for AddAB inhibitors: absorbance-based bacterial cell-based high throughput dose response assay for inhibitors of bacterial viability. [Related pubchem assays (depositor defined):AID435030, AID449728, AID449731, AID488942, AID488955, AID488956]; type: functional
[6] = biological target: Phosphorylase b kinase gamma catalytic chain, liver/testis isoform (Homo sapiens, UniProt P15735); type: functional;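 note: PHKG2 measured as one member of a kinome-wide kinase panel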
[7] = biological target: RAC-gamma serine/threonine-protein kinase (Homo sapiens, UniProt Q9Y243); type: functional
[8] = biological target: Proto-oncogene tyrosine-protein kinase receptor Ret (Homo sapiens, UniProt P07949); type: functional;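 note: measured within a kinome-wide profiling panel, RET as the panel member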
[9] = biological target: Calcium/calmodulin-dependent protein kinase type II subunit gamma (Homo sapiens, UniProt Q13555); type: functional
[10] = biological target: Tyrosine-protein kinase SYK (Homo sapiens, UniProt P43405); type: functional
[11] = biological target: Serine/threonine-protein kinase Chk2 (Homo sapiens, UniProt O96017); type: functional;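 note: CHEK2 entry within a kinome-wide screening panel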
[12] = biological target: Serine/threonine-protein kinase PAK 4 (Homo sapiens, UniProt O96013); type: functional;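 note: value obtained within a kinome profiling panel in which PAK4 was one of the panel members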
[13] = biological target: Serine/threonine-protein kinase PAK 1 (Homo sapiens, UniProt Q13153); type: functional
[14] = biological target: Calcium/calmodulin-dependent protein kinase type II subunit delta (Homo sapiens, UniProt Q13557); type: functional
[15] = biological target: Tyrosine-protein kinase JAK3 (Homo sapiens, UniProt P52333); type: functional
[16] = biological target: Tyrosine-protein kinase Lyn (Homo sapiens, UniProt P07948); type: functional;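 note: lyn as one member of a kinase panel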
[17] = biological target: Serine/threonine-protein kinase TAO1 (Homo sapiens, UniProt Q7L7X3); type: functional
[18] = biological target: Tyrosine-protein kinase Blk (Homo sapiens, UniProt P51451); type: functional;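 note: obtained as one member of a kinome-wide kinase assay panel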
[19] = biological target: MAP/microtubule affinity-regulating kinase 3 (Homo sapiens, UniProt P27448); type: functional;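 note: MARK3 affinity measured as one member of a kinome panel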
[20] = biological target: Serine/threonine-protein kinase pim-3 (Homo sapiens, UniProt Q86V86); type: functional;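 note: value obtained as one member of a broad kinase panel profiling effort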
[21] = biological target: Non-receptor tyrosine-protein kinase TYK2 (Homo sapiens, UniProt P29597); type: functional
[22] = biological target: Protein kinase C gamma type (Homo sapiens, UniProt P05129); type: functional
[23] = biological target: Glycogen synthase kinase-3 alpha (Homo sapiens, UniProt P49840); type: functional;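 note: GSK3A result taken from a broad kinome-wide kinase panel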
[24] = biological target: Cyclin-dependent kinase 5 (Homo sapiens, UniProt Q00535); type: functional;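 note: CDK5 measured as one member of a kinase profiling panel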
[25] = biological target: Serine/threonine-protein kinase Nek4 (Homo sapiens, UniProt P51957); type: functional
[26] = biological target: Dual specificity tyrosine-phosphorylation-regulated kinase 4 (Homo sapiens, UniProt Q9NR20); type: functional
[27] = biological target: Interleukin-1 receptor-associated kinase 4 (Homo sapiens, UniProt Q9NWZ3); type: functional
[28] = biological target: Tyrosine-protein kinase Fyn (Homo sapiens, UniProt P06241); type: functional
[29] = biological target: 3-phosphoinositide-dependent protein kinase 1 (Homo sapiens, UniProt O15530); type: functional;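 note: value comes from the Navigating the Kinome panel, PDPK1 member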
[30] = biological target: Fibroblast growth factor receptor 3 (Homo sapiens, UniProt P22607); type: functional
[31] = biological target: Serine/threonine-protein kinase PLK1 (Homo sapiens, UniProt P53350); type: functional;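 note: PLK1 measured as one member of a kinome-wide profiling panel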
[32] = biological target: cAMP-dependent protein kinase catalytic subunit alpha (Homo sapiens, UniProt P17612); type: functional
[33] = biological target: Mitogen-activated protein kinase 12 (Homo sapiens, UniProt P53778); type: functional;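 note: measured as one member of a kinome-wide kinase profiling panel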
[34] = biological target: Serine/threonine-protein kinase MRCK alpha (Homo sapiens, UniProt Q5VT25); type: functional
[35] = biological target: Serine/threonine-protein kinase BRSK1 (Homo sapiens, UniProt Q8TDC3); type: functional;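 note: measured within a kinome-wide kinase panel, with the target listed as KIAA1811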
[36] = biological target: Dual specificity tyrosine-phosphorylation-regulated kinase 1A (Homo sapiens, UniProt Q13627); type: functional;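 note: measured against DYRK1A as one member of a broad kinome profiling panel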
[37] = biological target: Tyrosine-protein kinase FRK (Homo sapiens, UniProt P42685); type: functional;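 note: FRK tested as one member of a kinome panel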

Sequence of Tyrosine-protein kinase JAK3 (P52333 whole entry): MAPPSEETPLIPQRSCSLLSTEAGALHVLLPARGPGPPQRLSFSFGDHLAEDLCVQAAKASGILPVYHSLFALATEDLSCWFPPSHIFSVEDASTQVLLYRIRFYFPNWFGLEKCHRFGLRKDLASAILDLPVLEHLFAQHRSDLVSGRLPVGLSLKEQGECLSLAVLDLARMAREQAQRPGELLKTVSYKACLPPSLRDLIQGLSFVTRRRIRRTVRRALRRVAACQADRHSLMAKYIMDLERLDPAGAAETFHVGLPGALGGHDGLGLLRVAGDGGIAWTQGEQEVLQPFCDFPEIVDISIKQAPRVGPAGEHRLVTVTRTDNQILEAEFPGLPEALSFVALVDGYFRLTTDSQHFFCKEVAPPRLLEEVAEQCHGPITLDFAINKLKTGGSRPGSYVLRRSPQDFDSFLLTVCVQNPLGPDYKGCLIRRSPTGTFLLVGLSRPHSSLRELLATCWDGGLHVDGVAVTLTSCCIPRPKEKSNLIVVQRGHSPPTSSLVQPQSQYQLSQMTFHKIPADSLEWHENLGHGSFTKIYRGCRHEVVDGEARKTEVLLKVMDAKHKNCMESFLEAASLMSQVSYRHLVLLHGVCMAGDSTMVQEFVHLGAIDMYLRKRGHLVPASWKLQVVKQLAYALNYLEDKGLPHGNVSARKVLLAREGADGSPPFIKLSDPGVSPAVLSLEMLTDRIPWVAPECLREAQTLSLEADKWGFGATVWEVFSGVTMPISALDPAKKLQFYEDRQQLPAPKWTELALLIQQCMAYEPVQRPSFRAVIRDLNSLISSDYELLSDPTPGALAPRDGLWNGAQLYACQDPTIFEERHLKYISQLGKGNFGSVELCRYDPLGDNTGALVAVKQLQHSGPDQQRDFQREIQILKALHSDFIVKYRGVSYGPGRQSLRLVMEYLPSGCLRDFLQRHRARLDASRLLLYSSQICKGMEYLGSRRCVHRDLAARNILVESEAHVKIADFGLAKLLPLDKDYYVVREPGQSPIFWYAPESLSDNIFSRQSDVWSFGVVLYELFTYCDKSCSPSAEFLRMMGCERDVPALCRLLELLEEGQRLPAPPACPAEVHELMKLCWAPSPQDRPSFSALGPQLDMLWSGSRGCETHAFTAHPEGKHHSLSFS
Sequence of Cyclin-dependent kinase 5 (Q00535 whole entry): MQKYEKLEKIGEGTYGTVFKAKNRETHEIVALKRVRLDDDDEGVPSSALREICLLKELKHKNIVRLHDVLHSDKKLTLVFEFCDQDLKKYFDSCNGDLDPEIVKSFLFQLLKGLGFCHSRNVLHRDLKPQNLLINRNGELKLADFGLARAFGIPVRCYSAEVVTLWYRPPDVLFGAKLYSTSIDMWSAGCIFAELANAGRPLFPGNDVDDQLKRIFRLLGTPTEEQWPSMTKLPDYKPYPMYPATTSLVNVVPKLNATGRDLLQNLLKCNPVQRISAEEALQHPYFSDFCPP
Sequence of Calcium/calmodulin-dependent protein kinase type II subunit delta (Q13557 whole entry): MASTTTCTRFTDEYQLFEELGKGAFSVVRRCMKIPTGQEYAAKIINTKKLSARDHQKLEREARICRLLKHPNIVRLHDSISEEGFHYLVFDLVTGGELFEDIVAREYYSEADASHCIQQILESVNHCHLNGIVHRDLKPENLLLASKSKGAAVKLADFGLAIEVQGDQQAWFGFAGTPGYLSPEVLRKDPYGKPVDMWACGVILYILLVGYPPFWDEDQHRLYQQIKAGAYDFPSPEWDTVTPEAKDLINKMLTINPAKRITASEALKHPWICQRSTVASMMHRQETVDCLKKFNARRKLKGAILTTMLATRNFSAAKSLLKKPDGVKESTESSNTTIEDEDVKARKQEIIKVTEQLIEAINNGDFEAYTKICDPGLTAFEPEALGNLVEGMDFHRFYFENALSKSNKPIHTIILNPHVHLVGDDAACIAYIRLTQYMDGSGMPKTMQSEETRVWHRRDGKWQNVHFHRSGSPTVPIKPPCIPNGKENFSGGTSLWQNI
Sequence of Dual specificity tyrosine-phosphorylation-regulated kinase 4 (Q9NR20 whole entry): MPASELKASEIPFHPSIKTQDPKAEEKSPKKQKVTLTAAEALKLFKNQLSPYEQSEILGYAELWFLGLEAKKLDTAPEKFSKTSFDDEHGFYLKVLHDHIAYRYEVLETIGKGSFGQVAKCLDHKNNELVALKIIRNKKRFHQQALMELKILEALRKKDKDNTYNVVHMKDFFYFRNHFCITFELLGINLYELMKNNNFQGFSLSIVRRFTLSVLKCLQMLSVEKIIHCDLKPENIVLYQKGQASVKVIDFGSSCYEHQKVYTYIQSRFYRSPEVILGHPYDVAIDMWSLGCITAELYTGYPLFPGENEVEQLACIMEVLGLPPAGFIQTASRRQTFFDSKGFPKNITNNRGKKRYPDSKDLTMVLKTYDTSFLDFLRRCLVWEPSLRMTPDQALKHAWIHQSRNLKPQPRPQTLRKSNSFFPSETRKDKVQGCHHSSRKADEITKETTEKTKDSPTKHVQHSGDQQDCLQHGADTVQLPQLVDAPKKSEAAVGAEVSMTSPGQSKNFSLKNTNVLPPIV
Sequence of Serine/threonine-protein kinase Nek4 (P51957 whole entry): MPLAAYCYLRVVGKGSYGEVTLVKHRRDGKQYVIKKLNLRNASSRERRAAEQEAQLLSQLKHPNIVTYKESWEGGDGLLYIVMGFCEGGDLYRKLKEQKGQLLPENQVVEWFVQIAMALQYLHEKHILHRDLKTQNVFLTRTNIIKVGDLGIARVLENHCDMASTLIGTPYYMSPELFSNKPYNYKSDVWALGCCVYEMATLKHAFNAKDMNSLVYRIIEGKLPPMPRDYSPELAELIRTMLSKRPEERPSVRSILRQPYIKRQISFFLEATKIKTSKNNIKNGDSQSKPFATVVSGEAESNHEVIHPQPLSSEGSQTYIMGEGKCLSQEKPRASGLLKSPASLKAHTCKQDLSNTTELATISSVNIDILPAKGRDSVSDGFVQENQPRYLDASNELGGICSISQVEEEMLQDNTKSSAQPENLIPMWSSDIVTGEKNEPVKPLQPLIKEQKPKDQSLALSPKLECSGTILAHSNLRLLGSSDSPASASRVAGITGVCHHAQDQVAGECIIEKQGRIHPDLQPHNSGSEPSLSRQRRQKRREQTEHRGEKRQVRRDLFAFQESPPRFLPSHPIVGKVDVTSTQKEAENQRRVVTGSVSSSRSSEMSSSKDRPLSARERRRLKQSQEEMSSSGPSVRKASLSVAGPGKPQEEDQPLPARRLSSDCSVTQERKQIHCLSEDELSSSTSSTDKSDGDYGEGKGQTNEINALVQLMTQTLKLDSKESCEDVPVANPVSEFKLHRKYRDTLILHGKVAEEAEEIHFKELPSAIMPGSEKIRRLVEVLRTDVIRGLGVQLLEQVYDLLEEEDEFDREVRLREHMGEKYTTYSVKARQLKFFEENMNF
Sequence of Mitogen-activated protein kinase 12 (P53778 whole entry): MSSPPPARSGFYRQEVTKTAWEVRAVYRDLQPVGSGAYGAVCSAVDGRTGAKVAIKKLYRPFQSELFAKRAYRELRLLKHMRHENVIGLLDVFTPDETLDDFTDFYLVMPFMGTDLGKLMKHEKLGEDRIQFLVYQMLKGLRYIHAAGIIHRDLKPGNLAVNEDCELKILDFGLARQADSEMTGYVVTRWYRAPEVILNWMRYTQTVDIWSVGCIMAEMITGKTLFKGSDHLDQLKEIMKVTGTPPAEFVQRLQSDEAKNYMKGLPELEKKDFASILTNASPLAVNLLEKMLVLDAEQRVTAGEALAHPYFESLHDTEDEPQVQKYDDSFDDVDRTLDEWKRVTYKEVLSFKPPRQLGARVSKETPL
Sequence of Interleukin-1 receptor-associated kinase 4 (Q9NWZ3 whole entry): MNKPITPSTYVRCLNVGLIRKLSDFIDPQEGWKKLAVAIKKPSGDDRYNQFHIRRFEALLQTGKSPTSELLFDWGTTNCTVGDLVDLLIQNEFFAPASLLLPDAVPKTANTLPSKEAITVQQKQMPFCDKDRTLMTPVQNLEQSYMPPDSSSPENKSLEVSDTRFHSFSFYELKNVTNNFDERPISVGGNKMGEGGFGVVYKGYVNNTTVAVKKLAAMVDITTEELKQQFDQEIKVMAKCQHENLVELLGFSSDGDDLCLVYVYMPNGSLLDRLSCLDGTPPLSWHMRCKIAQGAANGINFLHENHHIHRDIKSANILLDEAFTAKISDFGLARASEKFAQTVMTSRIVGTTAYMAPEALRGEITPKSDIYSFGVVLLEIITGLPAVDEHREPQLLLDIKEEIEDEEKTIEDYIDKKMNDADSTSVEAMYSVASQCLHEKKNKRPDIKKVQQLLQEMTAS
Sequence of Tyrosine-protein kinase Blk (P51451 whole entry): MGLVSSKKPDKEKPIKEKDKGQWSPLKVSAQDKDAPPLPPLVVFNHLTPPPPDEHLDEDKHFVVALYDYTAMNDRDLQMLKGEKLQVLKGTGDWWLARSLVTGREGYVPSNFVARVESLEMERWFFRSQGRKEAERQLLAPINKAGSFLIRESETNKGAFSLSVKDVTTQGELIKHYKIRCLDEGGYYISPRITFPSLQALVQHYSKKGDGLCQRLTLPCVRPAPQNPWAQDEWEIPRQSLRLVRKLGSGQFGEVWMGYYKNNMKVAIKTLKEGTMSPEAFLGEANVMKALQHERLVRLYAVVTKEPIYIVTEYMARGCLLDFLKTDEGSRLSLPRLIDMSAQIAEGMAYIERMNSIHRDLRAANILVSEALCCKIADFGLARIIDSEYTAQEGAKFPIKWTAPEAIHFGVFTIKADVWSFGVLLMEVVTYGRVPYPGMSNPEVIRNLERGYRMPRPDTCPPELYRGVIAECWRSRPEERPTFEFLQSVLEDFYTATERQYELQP

COc1ccc(-c2nnc(NC(=O)c3ccc(F)cc3)o2)cc1
EC50 [1]: 61.7 µM (active)
EC50 [2]: 30.7 µM (active)
EC50 [3]: > 180 µM (inactive)
EC50 [4]: 38.1 µM (active)
IC50 [5]: > 118 µM (inactive)

CCn1c(-c2nonc2N)nc2cnc(Oc3cccc(NC(=O)c4ccc(OCCN5CCOCC5)cc4)c3)cc21 [GSK-269962A]
Ki [6]: > 5.01 µM (inactive)
Ki [7]: 2 µM (active)
Ki [8]: > 1.26 µM (inactive)
Ki [9]: > 6.31 µM (inactive)
Ki [10]: > 1.58 µM (inactive)
Ki [11]: > 1.58 µM (inactive)
Ki [12]: > 5.01 µM (inactive)
Ki [13]: > 10 µM (inactive)
Ki [14]: > 6.31 µM (inactive)
Ki [15]: > 1.58 µM (inactive)
Ki [16]: > 1.58 µM (inactive)
Ki [17]: > 10 µM (inactive)
Ki [18]: > 1.58 µM (inactive)
Ki [19]: 1.58 µM (active)
Ki [20]: 1.58 µM (active)
Ki [21]: > 2 µM (inactive)
Ki [22]: 251 nM (active)
Ki [23]: 50.1 nM (active)
Ki [24]: > 10 µM (inactive)
Ki [25]: > 6.31 µM (inactive)
Ki [26]: > 7.94 µM (inactive)
Ki [27]: > 10 µM (inactive)
Ki [28]: > 794 nM (inactive)
Ki [29]: > 3.98 µM (inactive)
Ki [30]: > 2 µM (inactive)
Ki [31]: > 7.94 µM (inactive)
Ki [32]: 31.6 nM (active)
Ki [33]: > 6.31 µM (inactive)
Ki [34]: 158 nM (active)
Ki [35]: > 10 µM (inactive)
Ki [36]: > 6.31 µM (inactive)
Ki [37]: > 2.51 µM (inactive)

— ChEMBL document CHEMBL1201862, “PubChem BioAssay data set” (2004)
